Reference: patent US11344510B2, “Arylcyclohexylamine derivatives and their use in the treatment of psychiatric disorders” (Gilgamesh Pharmaceuticals, Inc., priority 2019, dated 2022)
Where two headings read alike, the source gives them in different places.

How the values were obtained:
[1] = molecular target: T1, serotonin transporter (SERT) (Homo sapiens, UniProt P31645); experiment: Fluorescent substrate uptake inhibition, SERT; format: cell-based; settings: for inhibition at 10 µM: HEK293 cells expressing SERT
T1 construct: expressed in transfected cells; host or cells: HEK293

[2] = molecular target: T2, dopamine transporter (DAT) (Homo sapiens, UniProt Q01959); experiment: Fluorescent substrate uptake inhibition, DAT; format: cell-based; settings: for inhibition at 10 µM: CHO cells expressing DAT
T2 construct: expressed in transfected cells; host or cells: CHO (uptake)

[3] = Oral bioavailability in mice, Method B; format: in vivo; settings: CD-1 mice; for AUC0-inf (iv) / AUC0-last (po) / AUC(0-inf): Method B: values represent AUC0-last (footnote); for F: 10 mg/kg; for half-life / Cmax / AUC(0-inf): male, mouse
Experimental: Animals. Male CD-1 mice were used in these studies Animals were randomly assigned to treatment groups and were fasted for 4 h before oral dosing.
Drugs. Test compounds were dissolved in a vehicle consisting of normal saline (compounds 19S and 88R) or a mixture of 5% v/v N-methyl-2-pyrrolidone, 5% v/v Solutol HS-15, and 90% v/v normal saline (compounds 11S, 11R, 114S, and 114R). They were then administered intravenously (iv) or orally (po) at a dose of 10 mg/kg (calculated based on freebase) and at a volume of 5 mL/kg body weight. Compounds were tested as the racemates (indicated by “rac” nomenclature) or pure enantiomers (indicated by “R” or “S” nomenclature).
Sample Collection and Bioanalysis. Blood samples (approximately 60 μL) were collected under light isoflurane anesthesia (Surgivet®) from the retro orbital plexus at 0.08, 0.25, 0.5, 1, 2, 4, 8, and 24 h (4 animals per time point) Immediately after blood collection, plasma was harvested by centrifugation at 4000 rpm for 10 min at 4° C. and samples were stored at −70±10° C. until bioanalysis. Following blood collection, animals were immediately sacrificed, the abdominal vena-cava was cut open, and the whole body was perfused from the heart using 10 mL of normal saline, and brain samples were collected from all animals After isolation, brain samples were rinsed three times in ice-cold normal saline (for 5-10 seconds/rinse using ˜5-10 mL normal saline in disposable petri dish for each rinse) and dried on blotting paper. Brain samples were homogenized using ice-cold phosphate-buffered saline (pH 7.4). Total homogenate volume was three times the tissue weight. All homogenates were stored at −70±10° C. until bioanalysis. For bioanalysis, 25 μL aliquots of plasma/brain study samples or spiked plasma/brain calibration standards were added to individual pre-labeled micro-centrifuge tubes followed by 100 μL of an internal standard solution (glipizide, 500 ng/mL in acetonitrile) except for blanks, where 100 μL of acetonitrile was added. Samples were vortexed for 5 minutes and then centrifuged for 10 minutes at 4000 rpm at 4° C. Following centrifugation, 100 μL of each clear supernatant was transferred to a 96 well plate and analyzed with a fit-for-purpose LC-MS/MS method, with authentic samples of each analyte used for calibration and identification.
(§1) Data Analysis. Pharmacokinetic parameters were estimated using the non-compartmental analysis tool of Phoenix® WinNonlin software (Ver 8.0).

[4] = Oral bioavailability in rats, Method B; format: in vivo; settings: plasma, Sprague Dawley rats, Method B; for AUC(0-t) / half-life / Cmax: male, rat; for F: 10 mg/kg
Experimental: Animals. Male Sprague Dawley rats were used in these studies. Animals were randomly assigned to treatment groups and were fasted overnight before oral dosing.
Drugs. Test compounds were dissolved in a vehicle consisting of normal saline (compounds 14R, 88R, 29rac, and 27rac) or a mixture of 5% v/v N-methyl-2-pyrrolidone, 5% v/v Solutol HS-15, and 90% v/v normal saline (compounds 84R and 84S). They were then administered intravenously (iv) or orally (po) at a dose of 10 mg/kg (calculated based on freebase) and at a volume of 5 mL/kg body weight. Compounds were tested as the racemates (indicated by “rac” nomenclature) or pure enantiomers (indicated by “R” or “S” nomenclature).
Sample Collection and Bioanalysis. Blood samples (approximately 120 μL) were collected under light isoflurane anesthesia (Surgivet®) from the retro orbital plexus at 0.08, 0.25, 0.5, 1, 2, 4, 8, and 24 h (total 8 time points/rat, 4 rats per administration route per compound). Immediately after blood collection, plasma was harvested by centrifugation at 4000 rpm for 10 min at 4° C. and samples were stored at −70±10° C. until bioanalysis. For bioanalysis, 25 μL aliquots of plasma study samples or spiked plasma calibration standards were added to individual pre-labeled micro-centrifuge tubes followed by 100 μL of an internal standard solution (glipizide, 500 ng/mL in acetonitrile) except for blanks, where 100 μL of acetonitrile was added. Samples were vortexed for 5 minutes and then centrifuged for 10 minutes at 4000 rpm at 4° C. Following centrifugation, 100 μL of each clear supernatant was transferred to a 96 well plate and analyzed with a fit-for-purpose LC-MS/MS method, with authentic samples of each analyte used for calibration and identification. In the case of compounds 14R and 88R, their metabolite 11R was also quantified in plasma samples.
as §1

[5] = calculated based on brain exposure (AUC0-last), Method B
[6] = brain, 10 mg/kg iv, Method B, read-out: t1/2 (iv)
[7] = plasma, 10 mg/kg iv, read-out: AUC0-inf (iv) (converted)
[8] = plasma, 10 mg/kg iv, Method B, read-out: t1/2 (iv)
[9] = plasma, 10 mg/kg po, read-out: AUC0-inf (po) (converted)
[10] = plasma, 10 mg/kg po, Method B, read-out: t1/2 (po)
[11] = plasma, Method B: based on AUC0-last
[12] = 10 mg/kg iv, read-out: AUC0-last (iv) (converted)
[13] = 10 mg/kg iv, read-out: t1/2 (iv)
[14] = 10 mg/kg po, read-out: AUC0-last (po) (converted)
[15] = 10 mg/kg po, read-out: t1/2 (po)

T2 sequence (Q01959 whole entry, species assumed): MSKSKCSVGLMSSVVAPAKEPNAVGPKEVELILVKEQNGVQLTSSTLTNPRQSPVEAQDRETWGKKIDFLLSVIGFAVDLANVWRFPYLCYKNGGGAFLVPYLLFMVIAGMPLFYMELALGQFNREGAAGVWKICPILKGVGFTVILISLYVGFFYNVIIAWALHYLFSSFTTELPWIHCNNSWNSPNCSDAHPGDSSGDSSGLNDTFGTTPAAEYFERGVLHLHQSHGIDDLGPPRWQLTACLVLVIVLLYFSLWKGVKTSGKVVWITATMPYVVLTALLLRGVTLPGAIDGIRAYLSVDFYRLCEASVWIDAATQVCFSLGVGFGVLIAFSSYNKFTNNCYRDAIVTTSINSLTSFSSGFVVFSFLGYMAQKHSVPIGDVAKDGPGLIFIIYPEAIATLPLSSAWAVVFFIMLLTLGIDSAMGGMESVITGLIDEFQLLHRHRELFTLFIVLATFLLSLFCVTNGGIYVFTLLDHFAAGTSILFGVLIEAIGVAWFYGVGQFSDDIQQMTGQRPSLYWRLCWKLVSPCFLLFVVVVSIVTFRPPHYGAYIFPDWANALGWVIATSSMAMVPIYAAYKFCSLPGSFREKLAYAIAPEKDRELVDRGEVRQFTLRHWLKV
T1 sequence (P31645 whole entry, species assumed): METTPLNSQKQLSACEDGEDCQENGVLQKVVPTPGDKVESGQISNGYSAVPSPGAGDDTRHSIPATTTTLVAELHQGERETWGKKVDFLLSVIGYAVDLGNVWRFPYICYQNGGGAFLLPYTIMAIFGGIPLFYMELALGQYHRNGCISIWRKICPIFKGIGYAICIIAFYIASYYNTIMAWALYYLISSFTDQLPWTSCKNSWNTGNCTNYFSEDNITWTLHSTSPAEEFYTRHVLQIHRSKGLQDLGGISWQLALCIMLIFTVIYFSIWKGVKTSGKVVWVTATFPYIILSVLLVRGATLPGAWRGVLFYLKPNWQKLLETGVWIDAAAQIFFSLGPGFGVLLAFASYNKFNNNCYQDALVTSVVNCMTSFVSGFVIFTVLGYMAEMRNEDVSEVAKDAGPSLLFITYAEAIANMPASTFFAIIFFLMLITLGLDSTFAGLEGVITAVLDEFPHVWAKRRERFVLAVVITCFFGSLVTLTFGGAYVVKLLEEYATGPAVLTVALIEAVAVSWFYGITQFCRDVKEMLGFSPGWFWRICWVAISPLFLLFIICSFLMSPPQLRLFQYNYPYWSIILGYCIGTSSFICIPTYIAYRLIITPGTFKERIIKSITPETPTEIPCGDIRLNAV

Compound	IC50 [1] [µM]	inhibition at 10 µM [1] [%]	inhibition at 10 µM [2] [%]	AUC0-inf (iv) ([3]; brain, 10 mg/kg iv)	AUC0-last (po) ([3]; brain, 10 mg/kg po)	F [3, 5] [%]	half-life [3, 6] [h]	Cmax ([3]; brain, 10 mg/kg po, Method B) [ng/g]	AUC(0-inf) [3, 7] [ng·h/mL]	half-life [3, 8] [h]	Cmax ([3]; plasma, 10 mg/kg po, Method B) [ng/mL]	AUC(0-inf) [3, 9] [ng·h/mL]	half-life [3, 10] [h]	F [3, 11] [%]	AUC(0-t) [4, 12] [ng·h/mL]	half-life [4, 13] [h]	Cmax ([4]; 10 mg/kg po) [ng/mL]	AUC(0-t) [4, 14] [ng·h/mL]	half-life [4, 15] [h]	F [4] [%]	further results
CN[C@]1(c2ccccc2)CCCCC1=O [Compound 14S, (S)-2-(methylamino)-2-phenylcyclohexan-1-one]	30.6	17	-4.5																		
CN[C@]1(c2cccc(F)c2)CCCCC1=O [Compound 19S, (5)-2-(3-fluorophenyl)-2-(methylamino)cyclohexan-1-one]		20.6	18.1	171,028 ng*min/g	23,552 ng*min/g	14	1.93	436	1130	1.9	442	671	2.28	59							half-life ([3]; brain, 10 mg/kg po, Method B, read-out: t1/2 (po)): 2.35 h
Cc1ccccc1[C@@]1(N)CCCCC1=O [Compound 114S, (S)-2-amino-2-(o-tolyl)cyclohexan-1-one]		-4	-15.2	244,634 ng*min/g	86,338 ng*min/g	35		825	757	1.34	746	1470	1.32	194							
COCCNC1(c2ccccc2)CCCCC1=O (racemic) [Compound 29rac, 2-((2-methoxyethyl)amino)-2-phenylcyclohexan-1-one]															1710	1.1	321	353	1.15	21	
O=C1CCCCC1(c1ccccc1)N1CCCC1 (racemic) [Compound 27rac, 2-phenyl-2-(pyrrolidin-1-yl)cyclohexan-1-one]	0.45	88.6	49.5												1710	1.62	197	563	2.42	33	IC50 [2]: 6.5 µM
N[C@]1(c2ccccc2)CCCCC1=O [Compound 11S, (S)-2-amino-2-phenyl-cyclohexan-1-one]		-2.6	10.1	434,023 ng*min/g	292,247 ng*min/g	67	0.7	2190	3420	1.06	2130	4200		123							
